Experimental data as given in US7332480B2, “Compositions for the regulation of cytokine activity” (Yeda Research and Development Co. Ltd., priority 1992, dated 2008).

Experiments:
[1] = tested on: experimental allergic asthma; test: Experimental allergic bronchial asthma in rats; format: in vivo, Brown Norway rats; details: 30 ng s.c. on day 30, challenge on day 35; saline animals Grade 3 or 4
Method: Experimental allergic bronchial asthma is an immediate type hypersensitivity reaction in rats which have been immunized and then rechallenged by inhalation of the priming antigen in a aerosolized solution. (Edelman, et al., Am. Rev. Resp. Dis. (1988) 137:1033-37). The etiology and pathophysiology of this experimental disease closely parallel the naturally occurring human counterpart. […] V.), on day zero. Subsequent challenges consisted of a 5 minute period of inhalation of OVA (1 mg/ml solution) aerosolized in a Devilbiss Nebulizer operated at an airflow of 6 L/min. Respiratory Distress (RD) responses were scored as Grade 0, no signs of distress; Grade 1, tachypnea; Grade 2, moderate labored breathing; Grade 3 severe labored breathing with mouth open; Grade 4, loss of consciousness and muscular tone. Sixteen days following primary immunization all animals were exposed to an initial aerosolized challenge to establish the positive control. The animals were coded so that the observer was ignorant of the subject animal's history. […] On day thirty, the animals were divided into 2 groups and given either saline (control Group A) or 30 ng of substance H-9392, s.c., (Group B) and challenged on day 35 as above.

skin graft rejection = test: Skin allograft rejection in mice; format: in vivo, BALB/c mice; details: 300 ng/mouse s.c. one day before grafting and weekly thereafter
Method: The effect of H-9392 was also tested in skin graft rejection experiments in mice. In particular, skin grafts from C57BL/6 donor mice (H-2^b) were applied to recipient BALB/c mice (H-2^d) according to the method of Baharav, E. et al. J. Immunol. Methods (1986) 90:143-144. The number of days to rejection was measured by the sloughing of the graft. The number of days to rejection was determined for a control group (injected with saline only, 0.1 ml), and test groups that received 3 ng or 300 ng of H-9392 by subcutaneous injection one day before grafting and weekly thereafter. The results, which are graphically represented in FIGS. 40 and 40A, reveal that the 3 ng/mouse dose delayed the level of skin graft rejection at 50% by 5 days!

[2] = tested on: mortality after irradiation; test: Radioprotective effects in gamma-irradiated mice; format: in vivo, BALB/c mice; details: 750 rads, three administrations
Method: Groups of female BALB/c mice, 8 weeks old, 5-10 mice per group, were injected subcutaneously with either saline (0.1 ml, control), H-9392 (30 ng/mouse), or glucosamine (10,000 ng/mouse) 1 day before irradiation, and weekly thereafter until termination of the experiment on day 30. All the mice were irradiated to a dose of 700 rads using a ^60Co gamma radiation source.
The mortality within the different groups of mice was then scored over a 30 day period. […] The group of mice which had been injected with glucosamine also fared better than the control group, showing a 20% mortality rate in the same period.
In a separate experiment, groups of BALB/c mice (5 mice to a group) were likewise exposed to 750 rads of gamma-rays, except that these groups of mice were treated with test substances (saline at 0.1 ml per mouse; H-9392 at 0.3, 3, 30 and 300 ng/mouse; and glucosamine at 1, 10 and 100 μg/mouse) on the day before irradiation, on the sixth day after irradiation, and once again on the thirteenth day after irradiation only. All treatment ceased after the third and last administration.

[3] = tested on: secretion of active TNF-α by activated human CD4+ T cells; test: Bioassay of TNF-α activity using human CD4+ T cells derived from PBLs (human PBL bioassay); format: cell-based; details: Table XXIII; conc range of 1 μg/ml-0.01 pg/ml; inconsistent = same result not obtained for all three bioassays
From the text: Non adherent cells were eluted and washed.
Nophar, Y. et al. J. Immunol. (1988) 140 (10):3456-3460.

IDDM of NOD mice = test: Insulin dependent diabetes mellitus (IDDM) of NOD mice; format: in vivo; details: H-9392 30 ng, glucosamine 10,000 ng; all the control mice had died (FIG. 41A)
adjuvant arthritis = test: Adjuvant arthritis (AA) in rats; format: in vivo, Lewis rats

## O=C(O)C1=C[C@H](O)[C@@H](OS(=O)(=O)O)[C@H](O[C@H]2[C@H](O)[C@@H](NS(=O)(=O)O)C(O)O[C@@H]2CO)O1 (stereo partly drawn) [H-9392, 2-O-Sulfate-4-deoxy-4-en-iduronic acid-(α-1,4)-2-deoxy-2-N-sulfateglucosamine]
[1]
  respiratory distress after secondary challenge: mere tachypnea
Skin graft rejection
  difference at 50% rejection relative to control: failed to produce a significant difference
[2]; 30 ng/mouse, 5 mice to a group
  mice died by the thirtieth day after irradiation: one
[2]; 300 ng H-9392, 1 μg glucosamine
  activity in suppressing mortality after irradiation: moderate activity
[3]
  Bioassay of TNF Activity: Inconsistent
IDDM of NOD mice
  mice died by age 5 months: none
Adjuvant arthritis; treatment from day 12, dexamethasone phosphate daily or weekly, disaccharide weekly
  course of AA after treatment was ended: continued to exhibit improved AA scores
Adjuvant arthritis; weekly or daily, beginning at day 0 or at day 12 (FIGS. 38D, 38E)
  effect on severity of AA: positive suppression of the severity of AA in all cases
Adjuvant arthritis; weekly s.c. from day 12, dexamethasone phosphate 100 μg or disaccharide 120 ng per rat (FIG. 38G)
  severity of the AA score at 30 days post-induction: almost complete suppression
